Results reported in US9440901B2, “Method for producing reduced coenzyme Q10” (KANEKA CORPORATION, priority 2012, dated 2016).

Experiments:
[1] = background statement; cited from earlier work
[2] = solubility of the crystal forms of reduced coenzyme Q10; type: physicochemical; details: compared to Form I crystal

| SMILES | oral absorbability compared to oxidized coenzyme Q10 [1] | solubility compared with conventional reduced coenzyme Q10 crystals (Form I) [2] |
| --- | --- | --- |
| COc1c(O)c(C)c(C/C=C(\C)CC/C=C(\C)CC/C=C(\C)CC/C=C(\C)CC/C=C(\C)CC/C=C(\C)CC/C=C(\C)CC/C=C(\C)CC/C=C(\C)CCC=C(C)C)c(O)c1OC [reduced coenzyme Q10] | high oral absorbability |  |
| COc1c(O)c(C)c(C/C=C(\C)CC/C=C(\C)CC/C=C(\C)CC/C=C(\C)CC/C=C(\C)CC/C=C(\C)CC/C=C(\C)CC/C=C(\C)CC/C=C(\C)CCC=C(C)C)c(O)c1OC [Form II, reduced coenzyme Q10] |  | lower solubility |
